{"source": "the supplement of paper PMC10627819", "assay_in_all_cases": "fitness (endpoint OD595 vs no drug) (fraction); higher = more growth", "key": {"B. subtilis 168": {"test_system": "B. subtilis 168", "how_it_was_run": "(§1)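 Volumes were 30 µl per well, or 55 µl for S. pneumoniae, in 384-well plates inoculated at OD595 0.01. Media were TSB, LB Lennox or CY at 37 °C, and OD595 was read every 30 min for 14 h with first-reading background subtraction. Fitness is the ratio of optical density at stationary-phase entry to the robust mean of no-drug controls. That ratio is capped at 1.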"}, "S. aureus DSM 20231": {"test_system": "S. aureus DSM 20231", "how_it_was_run": "as §1"}, "S. aureus Newman": {"test_system": "S. aureus Newman", "how_it_was_run": "as §1"}, "S. pneumoniae D39V": {"test_system": "S. pneumoniae D39V", "how_it_was_run": "as §1"}, "[1]": {"conditions": "first compound 0.125 µg/mL, partner 0.078 µg/mL"}, "[2]": {"conditions": "first compound 0.125 µg/mL, partner 0.156 µg/mL"}}}
{"smiles": "CCC[C@@H]1C[C@@H](C(=O)N[C@@H]([C@H]2O[C@H](SC)[C@H](O)[C@@H](O)[C@H]2O)[C@H](C)Cl)N(C)C1", "note": "[Clindamycin] + CO/N=C(\\C(=O)N[C@@H]1C(=O)N2C(C(=O)O)=C(COC(C)=O)CS[C@H]12)c1csc(N)n1 [Cefotaxime]", "values": [{"measurement": "fitness", "setting": "B. subtilis 168; first compound 0.0039 µg/mL, partner 0.0625 µg/mL, one replicate", "result": 0.681}, {"measurement": "fitness", "setting": "B. subtilis 168; first compound 0.0039 µg/mL, partner 0.125 µg/mL, one replicate", "result": 0.531}, {"measurement": "fitness", "setting": "B. subtilis 168; first compound 0.0039 µg/mL, partner 0.25 µg/mL, one replicate", "result": 0.442}, {"measurement": "fitness", "setting": "B. subtilis 168; first compound 0.0078 µg/mL, partner 0.0625 µg/mL, one replicate", "result": 0.62}, {"measurement": "fitness", "setting": "B. subtilis 168; first compound 0.0078 µg/mL, partner 0.125 µg/mL, one replicate", "result": 0.482}, {"measurement": "fitness", "setting": "B. subtilis 168; first compound 0.0078 µg/mL, partner 0.25 µg/mL, one replicate", "result": 0.389}, {"measurement": "fitness", "setting": "B. subtilis 168; first compound 0.0156 µg/mL, partner 0.0625 µg/mL, one replicate", "result": 0.485}, {"measurement": "fitness", "setting": "B. subtilis 168; first compound 0.0156 µg/mL, partner 0.125 µg/mL, one replicate", "result": 0.406}, {"measurement": "fitness", "setting": "B. subtilis 168; first compound 0.0156 µg/mL, partner 0.25 µg/mL, one replicate", "result": 0.314}, {"measurement": "fitness", "setting": "B. subtilis 168; first compound 0.0625 µg/mL, partner 0.00775 µg/mL, one replicate", "result": 0.473}, {"measurement": "fitness", "setting": "B. subtilis 168; first compound 0.0625 µg/mL, partner 0.0155 µg/mL, one replicate", "result": 0.389}, {"measurement": "fitness", "setting": "B. subtilis 168; first compound 0.0625 µg/mL, partner 0.031 µg/mL, one replicate", "result": 0.343}, {"measurement": "fitness", "setting": "B. subtilis 168; first compound 0.0625 µg/mL, partner 0.5 µg/mL", "result": 0.138}, {"measurement": "fitness", "setting": "B. subtilis 168; first compound 0.0625 µg/mL, partner 1 µg/mL", "result": 0.0488}, {"measurement": "fitness", "setting": "B. subtilis 168; first compound 0.0625 µg/mL, partner 2 µg/mL", "result": 0.0865}, {"measurement": "fitness", "setting": "B. subtilis 168; first compound 0.125 µg/mL, partner 0.00775 µg/mL, one replicate", "result": 0.339}, {"measurement": "fitness", "setting": "B. subtilis 168; first compound 0.125 µg/mL, partner 0.0155 µg/mL, one replicate", "result": 0.304}, {"measurement": "fitness", "setting": "B. subtilis 168; first compound 0.125 µg/mL, partner 0.031 µg/mL, one replicate", "result": 0.3}, {"measurement": "fitness", "setting": "B. subtilis 168; first compound 0.125 µg/mL, partner 0.5 µg/mL", "result": 0.096}, {"measurement": "fitness", "setting": "B. subtilis 168; first compound 0.125 µg/mL, partner 1 µg/mL", "result": 0.0462}, {"measurement": "fitness", "setting": "B. subtilis 168; first compound 0.125 µg/mL, partner 2 µg/mL", "result": 0.0669}, {"measurement": "fitness", "setting": "B. subtilis 168; first compound 0.25 µg/mL, partner 0.00775 µg/mL, one replicate", "result": 0.33}, {"measurement": "fitness", "setting": "B. subtilis 168; first compound 0.25 µg/mL, partner 0.0155 µg/mL, one replicate", "result": 0.254}, {"measurement": "fitness", "setting": "B. subtilis 168; first compound 0.25 µg/mL, partner 0.031 µg/mL, one replicate", "result": 0.111}, {"measurement": "fitness", "setting": "B. subtilis 168; first compound 0.25 µg/mL, partner 0.5 µg/mL", "result": 0.0789}, {"measurement": "fitness", "setting": "B. subtilis 168; first compound 0.25 µg/mL, partner 1 µg/mL", "result": 0.0542}, {"measurement": "fitness", "setting": "B. subtilis 168; first compound 0.25 µg/mL, partner 2 µg/mL", "result": 0.0739}, {"measurement": "fitness", "setting": "S. aureus DSM 20231; first compound 0.0625 µg/mL, partner 0.312 µg/mL", "result": 0.11}, {"measurement": "fitness", "setting": "S. aureus DSM 20231; first compound 0.125 µg/mL, partner 0.039 µg/mL", "result": 0.0991}, {"measurement": "fitness", "setting": "S. aureus DSM 20231; [1]", "result": 0.0447}, {"measurement": "fitness", "setting": "S. aureus DSM 20231; [2]", "result": 0.0526}, {"measurement": "fitness", "setting": "S. aureus DSM 20231; first compound 0.125 µg/mL, partner 0.312 µg/mL", "result": 0.0465}, {"measurement": "fitness", "setting": "S. aureus Newman; first compound 0.0312 µg/mL, partner 0.039 µg/mL, one replicate", "result": 0.525}, {"measurement": "fitness", "setting": "S. aureus Newman; first compound 0.0312 µg/mL, partner 0.078 µg/mL", "result": 0.437}, {"measurement": "fitness", "setting": "S. aureus Newman; first compound 0.0312 µg/mL, partner 0.156 µg/mL", "result": 0.351}, {"measurement": "fitness", "setting": "S. aureus Newman; first compound 0.0312 µg/mL, partner 0.312 µg/mL, one replicate", "result": 0.128}, {"measurement": "fitness", "setting": "S. aureus Newman; first compound 0.0312 µg/mL, partner 0.625 µg/mL", "result": 0.055}, {"measurement": "fitness", "setting": "S. aureus Newman; first compound 0.0312 µg/mL, partner 1.25 µg/mL", "result": 0.036}, {"measurement": "fitness", "setting": "S. aureus Newman; first compound 0.0312 µg/mL, partner 2.5 µg/mL", "result": 0.0433}, {"measurement": "fitness", "setting": "S. aureus Newman; first compound 0.0625 µg/mL, partner 0.039 µg/mL, one replicate", "result": 0.161}, {"measurement": "fitness", "setting": "S. aureus Newman; first compound 0.0625 µg/mL, partner 0.078 µg/mL", "result": 0.223}, {"measurement": "fitness", "setting": "S. aureus Newman; first compound 0.0625 µg/mL, partner 0.156 µg/mL", "result": 0.114}, {"measurement": "fitness", "setting": "S. aureus Newman; first compound 0.0625 µg/mL, partner 0.312 µg/mL, one replicate", "result": 0.0773}, {"measurement": "fitness", "setting": "S. aureus Newman; first compound 0.0625 µg/mL, partner 0.625 µg/mL", "result": 0.0368}, {"measurement": "fitness", "setting": "S. aureus Newman; first compound 0.0625 µg/mL, partner 1.25 µg/mL", "result": 0.0614}, {"measurement": "fitness", "setting": "S. aureus Newman; first compound 0.0625 µg/mL, partner 2.5 µg/mL", "result": 0.0509}, {"measurement": "fitness", "setting": "S. aureus Newman; first compound 0.125 µg/mL, partner 0.039 µg/mL, one replicate", "result": 0.0501}, {"measurement": "fitness", "setting": "S. aureus Newman; [1]", "result": 0.0724}, {"measurement": "fitness", "setting": "S. aureus Newman; [2]", "result": 0.0344}, {"measurement": "fitness", "setting": "S. aureus Newman; first compound 0.125 µg/mL, partner 0.312 µg/mL, one replicate", "result": 0.113}, {"measurement": "fitness", "setting": "S. aureus Newman; first compound 0.125 µg/mL, partner 0.625 µg/mL", "result": 0.0721}, {"measurement": "fitness", "setting": "S. aureus Newman; first compound 0.125 µg/mL, partner 1.25 µg/mL", "result": 0.0661}, {"measurement": "fitness", "setting": "S. aureus Newman; first compound 0.125 µg/mL, partner 2.5 µg/mL", "result": 0.0579}, {"measurement": "fitness", "setting": "S. pneumoniae D39V; first compound 0.0125 µg/mL, partner 0.0018 µg/mL", "result": 0.792}, {"measurement": "fitness", "setting": "S. pneumoniae D39V; first compound 0.0125 µg/mL, partner 0.0035 µg/mL", "result": 0.812}, {"measurement": "fitness", "setting": "S. pneumoniae D39V; first compound 0.0125 µg/mL, partner 0.007 µg/mL", "result": 0.763}, {"measurement": "fitness", "setting": "S. pneumoniae D39V; first compound 0.015 µg/mL, partner 0.0018 µg/mL", "result": 0.889}, {"measurement": "fitness", "setting": "S. pneumoniae D39V; first compound 0.015 µg/mL, partner 0.0035 µg/mL", "result": 0.908}, {"measurement": "fitness", "setting": "S. pneumoniae D39V; first compound 0.015 µg/mL, partner 0.007 µg/mL", "result": 0.803}, {"measurement": "fitness", "setting": "S. pneumoniae D39V; first compound 0.025 µg/mL, partner 0.0018 µg/mL", "result": 0.573}, {"measurement": "fitness", "setting": "S. pneumoniae D39V; first compound 0.025 µg/mL, partner 0.0035 µg/mL", "result": 0.549}, {"measurement": "fitness", "setting": "S. pneumoniae D39V; first compound 0.025 µg/mL, partner 0.007 µg/mL", "result": 0.503}, {"measurement": "fitness", "setting": "S. pneumoniae D39V; first compound 0.03 µg/mL, partner 0.0018 µg/mL", "result": 0.709}, {"measurement": "fitness", "setting": "S. pneumoniae D39V; first compound 0.03 µg/mL, partner 0.0035 µg/mL", "result": 0.666}, {"measurement": "fitness", "setting": "S. pneumoniae D39V; first compound 0.03 µg/mL, partner 0.007 µg/mL", "result": 0.569}, {"measurement": "fitness", "setting": "S. pneumoniae D39V; first compound 0.05 µg/mL, partner 0.0018 µg/mL", "result": 0.256}, {"measurement": "fitness", "setting": "S. pneumoniae D39V; first compound 0.05 µg/mL, partner 0.0035 µg/mL", "result": 0.253}, {"measurement": "fitness", "setting": "S. pneumoniae D39V; first compound 0.05 µg/mL, partner 0.007 µg/mL", "result": 0.184}, {"measurement": "fitness", "setting": "S. pneumoniae D39V; first compound 0.06 µg/mL, partner 0.0018 µg/mL", "result": 0.374}, {"measurement": "fitness", "setting": "S. pneumoniae D39V; first compound 0.06 µg/mL, partner 0.0035 µg/mL", "result": 0.354}, {"measurement": "fitness", "setting": "S. pneumoniae D39V; first compound 0.06 µg/mL, partner 0.007 µg/mL", "result": 0.288}]}
